Legend:
Jurkat cells = test: trypan blue exclusion, Jurkat; type: cell-based, human; settings: 25 μg/ml taurolidine
Procedure: FIGS. 9A and 9B depict cell viability and growth rates for Jurkat cell line following taurolidine treatment, in terms of % trypan blue negative cells and % cell number, respectively. Cells were treated with various concentrations of taurolidine for 4 hours in AIM-V+0.01% BCS. After aliquots were collected for LDH assay, the remainder of the culture was rinsed in HBSS and resuspended in RPMI+10% BCS without taurolidine. Counts of trypan blue-negative cells (FIG. 9A), and total cell number (FIG. 9B), were recorded daily thereafter (with the measurement at Day 1 being made immediately after the 4 hour taurolidine treatment). Conditions were: no treatment (open circles); 25 μg/ml taurolidine (closed circles); 50 μg/ml taurolidine (open squares); 100 μg/ml taurolidine (closed squares); and vehicle alone (closed triangles). Doubling times were determined under each condition, and expressed as a percentage of the rate of doubling of untreated cells. These values are located to the right of the growth curves in (FIG. 9B). […]
HL-60 cells treated with 50 μl taurolidine. In these samples, LDH present in the culture medium was 8.3±2.3% of that released by completely lysed cells, compared with 2.3±0.8% measured in control cultures. […] After 4 hour treatment, cells were rinsed and returned to growth medium and monitored for viability and growth over the following 3 days. […]

REH cells = test: trypan blue exclusion, REH; type: cell-based, human; settings: 25 μg/ml taurolidine, versus MM6, K562, Jurkat
Procedure: FIGS. 8A and 8B depict cell viability and growth rates for REH cell line following taurolidine treatment, in terms of % trypan blue negative cells and % cell number, respectively. Cells were treated with various concentrations of taurolidine for 4 hours in AIM-V+0.01% BCS. After aliquots were collected for LDH assay, the remainder of the culture was rinsed in HBSS and resuspended in RPMI+10% BCS without taurolidine. Counts of trypan blue-negative cells (FIG. 8A), and total cell number (FIG. 8B), were recorded daily thereafter (with the measurement at Day 1 being made immediately after the 4 hour taurolidine treatment). […] Doubling times were determined under each condition, and expressed as a percentage of the rate of doubling of untreated cells. […]
(§1) In these experiments, integrity of cell membranes following taurolidine treatment was assessed by exclusion of trypan blue and by measuring the release of LDH in MM6, K-562, HL-60, and REH cells. […] A parallel aliquot of cells was lysed by three cycles of freeze/thaw and the quantity of LDH released was taken to be 100%. […]
HL-60 cells treated with 50 μl taurolidine. In these samples, LDH present in the culture medium was 8.3±2.3% of that released by completely lysed cells, compared with 2.3±0.8% measured in control cultures. […]

MM6 = test: TUNEL / propidium iodide flow cytometry, MM6; type: cell-based, human; settings: for % TUNEL-positive: MM6, taurolidine 100 μg/ml or anisomycin 1 μg/ml for 4 h, assayed at 6 hours, mean ± SD
Procedure: (§2) In the second method, DNA fragmentation was detected via TUNEL assay according to the manufacturer's instructions. With this methodology, 2×10^6 cells were fixed with 2% paraformaldehyde, permeabilized with 0.1% Triton X-100/0.1% citrate, incubated at 37° C. with terminal deoxynucleotidyl transferase and FITC-dUTP, rinsed and analyzed by flow cytometry. Enhanced FITC signal indicates apoptosis-specific DNA fragmentation. Gavriali, et al, "Identification of programmed cell death in situ via specific labeling of nuclear DNA fragmentation," J Cell Biol 119:493 (1992). Parallel aliquots of unfixed cells were treated with PI and FITC-conjugated anti-CD14 and analyzed by flow cytometry, in order to identify cells with permeable cell membranes (since PI binds to DNA but is excluded from cells with intact plasma membranes) and also to determine the cell-specificity of the apoptotic signal.
Consequently, TUNEL analysis was performed on PBMC at 3, 6, or 24 hours after treatment with 25 to 100 μg/ml taurolidine. Aliquots of harvested cells were also labeled with FITC-conjugated anti-CD14 antibodies and PI, which allowed identification of monocytes (CD14-positive cells) and cells with damaged cell membranes (PI-positive cells). […] Thus, nearly 75% of the monocytes were TUNEL-positive following treatment with 100 μg/ml taurolidine for six hours. Confirmation that the TUNEL-positive cells were monocytes was obtained by staining with FITC-conjugated anti-CD14.
(§3) In another study, TUNEL assays were performed on all cell lines 6 hours after cells were initially exposed to taurolidine (cells were treated for 4 hours, rinsed, and then incubated for 2 more hours before TUNEL assay was performed).
. Taurolidine and anisomycin induced apoptosis in MM6, HL-60, and Jurkat cells (Table VIII). MM6 and HL-60 cells were similarly effected, with >80% TUNEL-positive cells after 6 hours. Jurkat cells were less sensitive, with approximately 50% of cells induced to undergo apoptosis after taurolidine treatment. After 6 hours, 73% of anisomycin-treated REH cells were apoptotic, with less than 20% of taurolidine-treated REH cells being TUNEL-positive. However, assay of cells 24 hours after
^a Analysis by flow cytometry after staining cells with propidium
iodide and processing for TUNEL.
Data are percent of total cell-size events, and are expressed as mean ±
Cells were treated for 4 hours with taurolidine (100 μg/ml) or
anisomycin (1 μg/ml), and then assayed at 6 hours.

REH = test: LDH release (cell membrane integrity), REH; type: cell-based; settings: Homo sapiens, 4 h, read-out: LDH (% of total)
Procedure: FIGS. 8A and 8B depict cell viability and growth rates for REH cell line following taurolidine treatment, in terms of % trypan blue negative cells and % cell number, respectively. Cells were treated with various concentrations of taurolidine for 4 hours in AIM-V+0.01% BCS. After aliquots were collected for LDH assay, the remainder of the culture was rinsed in HBSS and resuspended in RPMI+10% BCS without taurolidine. Counts of trypan blue-negative cells (FIG. 8A), and total cell number (FIG. 8B), were recorded daily thereafter (with the measurement at Day 1 being made immediately after the 4 hour taurolidine treatment). Conditions were: no treatment (open circles); 25 μg/ml taurolidine (closed circles); 50 μg/ml taurolidine (open squares); 100 μg/ml taurolidine (closed squares); and vehicle alone (closed triangles). Doubling times were determined under each condition, and expressed as a percentage of the rate of doubling of untreated cells. […]
as §1
^a LDH was measured immediately after four hour taurolidine treatment.

GM5387 = test: TUNEL / propidium iodide flow cytometry, GM5387; type: cell-based, human; settings: GM5387, 6 hours after treatment
Procedure: as §2, §3
. Taurolidine and anisomycin induced apoptosis in MM6, HL-60, and Jurkat cells (Table VIII). MM6 and HL-60 cells were similarly effected, with >80% TUNEL-positive cells after 6 hours. […]
Data are percent of total cell-size events, and are expressed as mean ± […]

O=S1(=O)CCN(CN2CCS(=O)(=O)NC2)CN1 [taurolidine, 4,4'-methylenebis(perhydro-1,2,4-thiadiazin 1,1-dioxide)]
trypan blue staining after treatment (Jurkat cells): did not show an increase in trypan blue staining | trypan blue staining after treatment, sensitivity (REH cells): more sensitive | cytotoxicity at 50 µg/mL (MM6; Homo sapiens, MONO-MAC-6, 3 h, read-out: % Propidium Iodide Positive Cells): 7% | % TUNEL-positive (MM6): 80.9 ± 7.7% | % TUNEL-positive (MM6; listed as Taurolidine): > 80% | onset of apoptosis after treatment (MM6; MM6 cells): detectable within four to six hours | % TUNEL-Negative Cells (MM6; Mono Mac 6, 50 μg/ml, 3 hours): 44% | cytotoxicity at 50 µg/mL (REH; 50 μg/ml): 6% | cytotoxicity at 100 µg/mL (REH; 100 μg/ml): 5% | DNA fragmentation (TUNEL positivity) (GM5387): did not demonstrate evidence for fragmentation of DNA

Source: patent US6303596A, “Use of taurolidine for treatment of leukemias” (priority 2000, dated 2001)
